Source: publication PMC9820279 (International Journal of Molecular Sciences, 2022)
Like-named read-outs stand apart in the source and are kept apart here.

Tests used:
[1] = cited from earlier work
[2] = design: method as in PMID 35782945, PMID 34869538, PMID 34209864, PMID 35498984, PMID 34923590; settings: previously studied by the group; cited from earlier work
BChE = settings: previously studied by the group; cited from earlier work
AChE = settings: previously studied by the group; cited from earlier work
LOX = system: LOX; design: method as in PMID 35782945, PMID 34869538, PMID 34209864, PMID 35498984, PMID 34923590; settings: previously studied by the group; cited from earlier work
[3] = matrix ASFE extract 24 µg/mL, 2 h incubation, n.d = not detected in lower compartment
[4] = matrix ASFE extract 24 µg/mL, 4 h incubation, n.d = not detected in lower compartment

Protocol for HBMEC monolayer: The cell line HBMEC was used as a simplified in vitro model of the BBB endothelium. […] Endothelial cell cultures were maintained at 37 °C in a humid atmosphere enriched with 5% CO2. In our studies, HBMEC were used between passage 25 and 29. For experiments, HBMECs were seeded using a volume of 200 µL at a density of 8 × 10^4 cells/mL in rat tail collagen-I (100 µg/mL) coated 96-well plates (for viability assay) or 500 µL at a density of 1.6 × 10^5 cells/mL in rat tail collagen-I (100 µg/mL) coated semi-permeable membranes in transwell inserts (0.4 µm pore, Corning Costar Corp., USA; for BBB integrity and transport assays) for 12-well plates. The incubation timepoints were assay dependent.
For the transendothelial transport assays, HBMEC were seeded on transwell inserts as described above and are schematically depicted in Figure 1a. After seeding, the media were changed every two days. Four days post-seeding, the HBMEC monolayer was formed, and the transport studies were performed. […] Vupper and Vlower is the upper and lower compartment volume (0.5 and 1.5 mL, respectively). The culture inserts were used for the subsequent integrity permeability studies.

C[C@@H]1CCCC2=CC[C@@H]3[C@@H](C3(C)C)[C@]21C [(-)-Aristolene]
Crossing of the PAMPA-BBB system ([1]; PLE100 extract compounds): could not cross
Te % (SEM) 2 h (HBMEC monolayer): 39.7 (0.4) %
Te % (SEM) 4 h (HBMEC monolayer): 71.3 (1.6) %
Detection in basolateral compartment (brain side) of HBMEC-BBB model (HBMEC monolayer; PLE100 extract): detected in the basolateral compartment

O=C1c2c(O)cc(O)cc2O[C@H](c2ccc(O)cc2)[C@H]1O [Aromadendrin]
Detection in the lower well of the PAMPA-BBB model ([1]; ASFE extract compounds): not detected in the lower well
Detection / transport to lower compartment (brain side) of HBMEC-BBB model (HBMEC monolayer; ASFE extract): could reach the “brain side”
Te % (SEM) 2 h (HBMEC monolayer; [3]): 76.2 (0.8) %
Te % (SEM) 4 h (HBMEC monolayer; [4]): 78.7 (0.7) %

O=C1O[C@H]([C@@H](O)CO)C(O)=C1O [Ascorbic acid]
RNS IC50 [2]: 1100.9 µg/mL

O=C(/C=C/c1ccc(O)c(O)c1)O[C@@H](C(=O)O)[C@@H](O)C(=O)O [Caftaric acid]
Detection in the lower well of the PAMPA-BBB model ([1]; ASFE extract compounds): not detected in the lower well
Detection / transport to lower compartment (brain side) of HBMEC-BBB model (HBMEC monolayer): could reach the “brain side”
Te % (SEM) 2 h (HBMEC monolayer; human, 2 h, 24 µg/mL): 46.3 (3.6) %
Te % (SEM) 4 h (HBMEC monolayer; human, 4 h, 24 µg/mL): 87.6 (3.5) %

O=c1oc2c(O)c(O)cc3c(=O)oc4c(O)c(O)cc1c4c23 [Ellagic acid]
Detection in the lower well of the PAMPA-BBB model ([1]; ASFE extract compounds): not detected in the lower well
Detection / transport to lower compartment (brain side) of HBMEC-BBB model (HBMEC monolayer): could reach the “brain side”
Te % (SEM) 2 h (HBMEC monolayer; human, 2 h, 24 µg/mL): 42.4 (1.6) %
Te % (SEM) 4 h (HBMEC monolayer; human, 4 h, 24 µg/mL): 85.5 (2.5) %

COc1cc(/C=C/C(=O)O)ccc1O [Ferulic acid]
Detection in the lower well of the PAMPA-BBB model ([1]; ASFE extract compounds): not detected in the lower well
Detection / transport to lower compartment (brain side) of HBMEC-BBB model (HBMEC monolayer; ASFE extract): could reach the “brain side”
Te % (SEM) 4 h (HBMEC monolayer; [4]): 9.1 (0.3) %

COc1ccc2c3c1O[C@H]1C[C@@H](O)C=C[C@@]31CCN(C)C2 [Galantamine]
BChE IC50 (BChE): 2.36 µg/mL
AChE IC50 (AChE): 0.40 µg/mL

CC(CC(=O)C[C@@H](C)[C@H]1C[C@H](O)[C@@]2(C)C3=C(C(=O)C[C@]12C)[C@@]1(C)CC[C@H](O)C(C)(C)[C@@H]1CC3)C(=O)O (some centres unmarked) [Ganolucidic acid B]
Detection in the lower well of the PAMPA-BBB model ([1]; ASFE extract compounds): not detected in the lower well
Detection / transport to lower compartment (brain side) of HBMEC-BBB model (HBMEC monolayer; ASFE extract): could reach the “brain side”
Te % (SEM) 2 h (HBMEC monolayer; [3]): 28.4 (1.1) %
Te % (SEM) 4 h (HBMEC monolayer; [4]): 28.6 (1.5) %

O=c1c(O[C@@H]2O[C@H](CO)[C@@H](O)[C@H](O)[C@H]2O)c(-c2ccc(O)c(O)c2)oc2cc(O)cc(O)c12 [Isoquercitrin]
Crossing of the in vitro PAMPA-BBB ([1]; PAMPA): not capable of crossing
Te % (SEM) 2 h (HBMEC monolayer; human, 2 h, 30 µg/mL): 6.0 (0.2) %
Te % (SEM) 4 h (HBMEC monolayer; human, 4 h, 30 µg/mL): 16.3 (1.3) %

C=C(C)[C@@H]1CC[C@]2(C)CC[C@]3(C)[C@H](CC[C@@H]4[C@@]5(C)CC[C@H](OC(C)=O)C(C)(C)[C@@H]5CC[C@]43C)[C@@H]12 [Lupeol acetate]
Detection in the PAMPA-BBB model ([1]; OL-SS extract compounds): not detected
Detection in basolateral compartment (brain side) of HBMEC-BBB model (HBMEC monolayer; OL-SS extract): not detected

CC(C)=CCC/C(C)=C\CO [Nerol]
Crossing of the PAMPA-BBB system ([1]; PLE100 extract compounds): could not cross
Detection in basolateral compartment (brain side) of HBMEC-BBB model (HBMEC monolayer; PLE100 extract): detected in the basolateral compartment
Te % (SEM) 2 h (HBMEC monolayer; human): 26.8 (0.2) %
Te % (SEM) 4 h (HBMEC monolayer; human): 41.5 (3.1) %

Oc1cc(O)c2c(c1)O[C@H](c1ccc(O)c(O)c1)[C@H](O)[C@H]2c1c(O)cc(O)c2c1O[C@H](c1ccc(O)c(O)c1)[C@H](O)C2 [Procyanidin B2]
Detection in the lower well of the PAMPA-BBB model ([1]; PAMPA): not detected in the lower well
Detection / transport to lower compartment (brain side) of HBMEC-BBB model (HBMEC monolayer; ASFE extract): could reach the “brain side”
Te % (SEM) 2 h (HBMEC monolayer; [3]): 56.8 (0.0) %
Te % (SEM) 4 h (HBMEC monolayer; [4]): 61.9 (2.6) %

Oc1cccc(O)c1O [Pyrogallol]
Detection in the lower well of the PAMPA-BBB model ([1]; ASFE extract compounds): not detected in the lower well
Detection / transport to lower compartment (brain side) of HBMEC-BBB model (HBMEC monolayer): could reach the “brain side”
Te % (SEM) 2 h (HBMEC monolayer; human, 2 h, 24 µg/mL): 37.6 (2.6) %
Te % (SEM) 4 h (HBMEC monolayer; human, 4 h, 24 µg/mL): 80.5 (1.1) %

O=c1c(O)c(-c2ccc(O)c(O)c2)oc2cc(O)cc(O)c12 [Quercetin]
LOX IC50 (LOX): 125.7 µg/mL

COc1cc(/C=C/C(=O)O)cc(OC)c1O [Sinapic acid]
Detection in the lower well of the PAMPA-BBB model ([1]; ASFE extract compounds): not detected in the lower well
Crossing of the in vitro PAMPA-BBB ([1]; T33 extract compounds): not capable of crossing
Te % (SEM) 2 h (HBMEC monolayer): 35.6 (2.0)/n.d %
Te % (SEM) 4 h (HBMEC monolayer): 44.4 (3.2)/18.6 (0.5) %
Detection / transport to lower compartment (brain side) of HBMEC-BBB model (HBMEC monolayer; ASFE extract): could reach the “brain side”
Te % (SEM) 4 h (HBMEC monolayer; [4]): 44.4 (3.2)/18.6 (0.5) %

CC(C)=CCC/C(C)=C/CC/C(C)=C/CC/C=C(\C)CC/C=C(\C)CCC=C(C)C [Squalene]
Crossing of the PAMPA-BBB system ([1]; PLE100 extract compounds): could not cross
Detection in basolateral compartment (brain side) of HBMEC-BBB model (HBMEC monolayer; PLE100 extract): detected in the basolateral compartment
Te % (SEM) 2 h (HBMEC monolayer; matrix OL-SS extract 40 µg/mL, 2 h incubation, n.d = not detected in lower compartment): 24.1 (1.4) %
Te % (SEM) 4 h (HBMEC monolayer; matrix OL-SS extract 40 µg/mL, 4 h incubation, n.d = not detected in lower compartment): 33.2 (0.9) %
Te % (SEM) 2 h (HBMEC monolayer; matrix PLE100 extract 15 µg/mL, 2 h incubation, n.d = not detected in lower compartment): 19.1 (1.4) %
Te % (SEM) 4 h (HBMEC monolayer; matrix PLE100 extract 15 µg/mL, 4 h incubation, n.d = not detected in lower compartment): 47.6 (1.5) %

Oc1ccc(/C=C/c2cc(O)cc3c2[C@@H](c2cc(O)cc(O)c2)[C@H](c2ccc(O)cc2)O3)cc1 [e-viniferin]
Detection in the lower well of the PAMPA-BBB model ([1]; ASFE extract compounds): not detected in the lower well
Detection / transport to lower compartment (brain side) of HBMEC-BBB model (HBMEC monolayer; ASFE extract): could reach the “brain side”
Te % (SEM) 2 h (HBMEC monolayer; [3]): 39.2 (2.2) %
Te % (SEM) 4 h (HBMEC monolayer; [4]): 45.9 (3.0) %

C[C@H]1[C@H](C)CC[C@]2(CO)CC[C@]3(C)C(=CC[C@@H]4[C@@]5(C)CC[C@H](O)C(C)(C)[C@@H]5CC[C@]43C)[C@H]12 [uvaol]
Detection in the PAMPA-BBB model ([1]; OL-SS extract compounds): detected in the acceptor well
Detection in basolateral compartment (brain side) of HBMEC-BBB model (HBMEC monolayer; OL-SS extract): detected

C[C@H]1[C@H](C)CC[C@]2(C)CC[C@]3(C)C(=CC[C@@H]4[C@@]5(C)CC[C@H](O)C(C)(C)[C@@H]5CC[C@]43C)[C@H]12 [α-Amyrin]
Detection in the PAMPA-BBB model ([1]; OL-SS extract compounds): not detected
Detection in basolateral compartment (brain side) of HBMEC-BBB model (HBMEC monolayer; OL-SS extract): not detected

CC1(C)CC[C@]2(C)CC[C@]3(C)C(=CC[C@@H]4[C@@]5(C)CC[C@H](O)C(C)(C)[C@@H]5CC[C@]43C)[C@@H]2C1 [β-Amyrin]
Crossing of the PAMPA-BBB system ([1]; PAMPA): not detected
Detection in the PAMPA-BBB model ([1]; PAMPA): not detected
Detection in basolateral compartment (brain side) of HBMEC-BBB model (HBMEC monolayer; OL-SS extract): not detected
Detection in basolateral compartment (brain side) of HBMEC-BBB model (HBMEC monolayer; PLE100 extract): not detected

C=CC1(C)CCC(=C(C)C)CC1C(=C)C (centres unmarked) [γ-Elemene]
Te % (SEM) 2 h (HBMEC monolayer): 30.1 (0.1) %
Te % (SEM) 4 h (HBMEC monolayer): 41.8 (1.7) %

CC[C@@H](CC[C@@H](C)[C@H]1CC[C@H]2[C@@H]3CC=C4C[C@@H](O)CC[C@]4(C)[C@H]3CC[C@]12C)C(C)C [γ-Sitosterol]
Te % (SEM) 2 h (HBMEC monolayer): 12.9 (0.6)/11.3 (0.5) %
Te % (SEM) 4 h (HBMEC monolayer): 19.2 (1.3)/12.1 (0.6) %

Cc1c(O)cc2c(c1C)O[C@](C)(CCC[C@H](C)CCC[C@H](C)CCCC(C)C)CC2 [γ-Tocopherol]
Te % (SEM) 2 h (HBMEC monolayer): 31.5 (0.8)/27.3 (2.1) %
Te % (SEM) 4 h (HBMEC monolayer): 42.0 (0.8)/30.0 (1.6) %

CC1=C[C@@H]2C(=C(C)CC[C@H]2C(C)C)CC1 [δ-Cadinene]
Te % (SEM) 2 h (HBMEC monolayer): 21.5 (0.8) %
Te % (SEM) 4 h (HBMEC monolayer): 28.9 (2.4) %

Caffeoylshikimic acid
Te % (SEM) 2 h (HBMEC monolayer): 14.3 (0.8) %
Te % (SEM) 4 h (HBMEC monolayer): 29.0 (0.1) %

Cymenol
Te % (SEM) 2 h (HBMEC monolayer): 51.5 (1.8) %

Farnesene
Te % (SEM) 2 h (HBMEC monolayer): 46.0 (2.1) %
Te % (SEM) 4 h (HBMEC monolayer): 50.9 (3.1) %

Phytol
Te % (SEM) 2 h (HBMEC monolayer; human): 15.6 (0.3) %
Te % (SEM) 4 h (HBMEC monolayer; human): 43.5 (3.7) %

Tocospiro A
Te % (SEM) 2 h (HBMEC monolayer): 2.7 (0.2) %
Te % (SEM) 4 h (HBMEC monolayer): 25.6 (1.5) %

Tocospiro B
Te % (SEM) 2 h (HBMEC monolayer): 1.9 (0.1) %
Te % (SEM) 4 h (HBMEC monolayer): 26.2 (1.0) %

γ-silenene
Te % (SEM) 2 h (HBMEC monolayer): 52.8 (3.8) %
Te % (SEM) 4 h (HBMEC monolayer): 53.8 (2.8) %
